We go through 15 molecules from ChEMBL document CHEMBL4622867, “An efficient synthetic approach toward a sporadic heterocyclic scaffold: 1,3-Oxathiol-2-ylidenes; alkaline phosphatase inhibition and molecular docking studies” (Bioorg Med Chem Lett, 2020).

Each structure is given as a SMILES string.

Test [1] concerns HeLa. As to the kind of experiment: Antiproliferative activity against human HeLa cells assessed as inhibition of cell growth by MTT assay relative to control. Type of test: functional.
The species named for test [2] is Bos taurus. Put plainly: Inhibition of bovine kidney TNAP relative to control. The arrangement: concentration or dose not given beside the values. Conditions: concentration not given here.
The species entered for test [3] is Bos taurus. Put plainly: Inhibition of calf intestinal alkaline phosphatase relative to control. The arrangement: concentration or dose not given beside the values. Conditions: concentration not given here.
Test [4] is described as follows: Inhibition of calf intestinal alkaline phosphatase. Details: species or system Bos taurus.
Test [5] is described as follows: Inhibition of bovine kidney TNAP. The arrangement: species or system Bos taurus.

For the molecule `CCOC(=O)c1s/c(=N\C(=O)c2ccccc2[N+](=O)[O-])oc1C`, in test [1], the “growth inhibition (GI)” value was 2.42%. Moreover, the inhibition stood at 44.5% in test [2] and 35.4% in test [3].

On to `CCOC(=O)c1s/c(=N\C(=O)c2cccc(Cl)c2)oc1C`, for which the IC50 in test [4] was found to be 2900 nM. Also, the “growth inhibition (GI)” value in test [1] was 8.07%. For the same molecule, in test [2], the inhibition amounted to 45.3%.

In turn, `CCOC(=O)c1s/c(=N\C(=O)c2ccccc2Cl)oc1C` had a half-maximal inhibitory concentration (IC50) in test [5] of 30400 nM. Also, the “growth inhibition (GI)” value in test [1] is given as 51.53%. For the same molecule, the inhibition in test [3] amounted to 45.3%.

As for `CCOC(=O)c1s/c(=N\C(=O)c2ccccc2C)oc1C`, the “growth inhibition (GI)” value in test [1] is listed as 9.8%. Also, the inhibition came out at 28.8% in test [2] and 19.5% in test [3].

Regarding `CCOC(=O)c1s/c(=N\C(=O)c2ccccc2)oc1C`, the “growth inhibition (GI)” value in test [1] is 69.03%. In addition, the inhibition in test [2] is 39.1%; in test [3], 30.4%.

Turning to `CCOC(=O)c1s/c(=N\C(=O)c2ccco2)oc1C`, the “growth inhibition (GI)” value in test [1] was found to be 42.11%. In addition, the inhibition in test [2] turned out to be 45.7%; in test [3] it was 33.1%.

Turning to `CCOC(=O)c1s/c(=N\C(=O)c2ccc(Cl)cc2)oc1C`, the inhibition in test [2] was 48.3%; in test [3], 27.9%.

As for `CCOC(=O)c1s/c(=N\C(=O)c2cc(OC)c(OC)c(OC)c2)oc1C`, the “growth inhibition (GI)” value in test [1] is listed as 58.07%. The inhibition in test [2] came to 47.1%; in test [3], 36.5%.

Turning to `CCOC(=O)c1s/c(=N\C(=O)c2cccc(Br)c2)oc1C`, the half-maximal inhibitory concentration (IC50) is 6510 nM in test [5] and 1160 nM in test [4]. Further, in test [1], the “growth inhibition (GI)” value was 4.61%.

Consider `c1ccc([C@H]2CN3CCSC3=N2)cc1` [LEVAMISOLE], for which it took 19200 nM to reach half-maximal inhibition in test [5] (IC50).

On to `CCOC(=O)c1s/c(=N\C(=O)Cc2ccccc2)oc1C`, for which the “growth inhibition (GI)” value in test [1] is 4.15%. The inhibition in test [2] amounted to 41.4%; in test [3] it was 25.3%.

With `CCOC(=O)c1s/c(=N\C(=O)c2cccc(C)c2)oc1C`, in test [1], the “growth inhibition (GI)” value was found to be 33.07%. The results for the inhibition in test [2] and in test [3] were 30.9% and 28.9%, respectively.

Regarding `CCOC(=O)c1s/c(=N\C(=O)CCCc2ccccc2)oc1C`, the figures for the concentration for half-maximal inhibition (IC50) in test [5] and in test [4] were 2410 nM and 670 nM, respectively. The “growth inhibition (GI)” value in test [1] came out at 3.96%.

In test [4], `N[C@@H](Cc1ccccc1)C(=O)O` [PHENYLALANINE] showed a half-inhibitory concentration (IC50) of 80200 nM.

Molecule `CCOC(=O)c1s/c(=N\C(=O)c2ccc([N+](=O)[O-])cc2)oc1C` showed an IC50 in test [5] of 370 nM. Also, the “growth inhibition (GI)” value in test [1] was 21.53%. The same molecule gave an inhibition in test [3] of 40.4%.

Usually inhibition stands for how much of the control response was suppressed. Broadly, the IC50 is the concentration that gives 50% inhibition.
